Test results: US7601716B2, “Pyridopyrazines and derivatives thereof as ALK and c-Met inhibitors” (Cephalon, Inc., priority 2006, dated 2009)
Where a name gives a salt, the structure may show the parent alone.

Experiments:
[1] = biological target: T1, c-Met (cytoplasmic domain) (Homo sapiens, UniProt P08581); assay: c-Met Kinase Assay (ELISA/TRF, PLC-γ substrate); type: biochemical; conditions: 3 μM ATP (Km level); read-out: c-Met Kinase Inhibition (IC50)
T1 construct: Reactions were initiated with 30 ng/mL c-Met (cytoplasmic domain, Invitrogen Corporation #PV3143); purchased Invitrogen Corporation PV3143
Method: Example compounds were tested for their ability to inhibit the kinase activity of baculovirus-expressed ALK using a modification of the ELISA protocol reported for trkA in Angeles, T. S. et al., Anal. Biochem. 1996, 236, 49-55, which is incorporated herein by reference in its entirety. Phosphorylation of the substrate, phospholipase C-gamma (PLC-γ) generated as a fusion protein with glutathione S-transferase (GST) as reported in Rotin, D. et al., EMBO J. 1992, 11, 559-567, which is incorporated herein by reference in its entirety, was detected with a europium-labeled anti-phosphotyrosine antibody and measured by time-resolved fluorescence (TRF). Briefly, each 96-well plate was coated with 100 μL/well of 10 μg/mL substrate (phospholipase C-γ) in Tris-buffered saline (TBS). […] The reaction was initiated by adding enzyme (30 ng/ml ALK) and was allowed to proceed at 37° C. for 15 minutes. Detection of the phosphorylated product was performed by adding 100 μl/well of Eu-N1 labeled PT66 antibody (Perkin Elmer # AD0041). Incubation at 37° C. then proceeded for one (1) hour, followed by addition of 100 μL enhancement solution (Wallac #1244-105). The plate was gently agitated and after thirty minutes, the fluorescence of the resulting solution was measured using the EnVision 2100 (or 2102) multilabel plate reader (Perkin Elmer).
Data analysis was performed using ActivityBase (IDBS, Guilford, UK). IC50 values were calculated by plotting percent inhibition versus log10 of the concentration of compound and fitting to the nonlinear regression sigmoidal dose-response (variable slope) equation in XLFit (IDBS, Guilford, UK).
Reactions were initiated with 30 ng/mL c-Met (cytoplasmic domain, Invitrogen Corporation #PV3143).

[2] = biological target: baculovirus-expressed ALK (Homo sapiens, UniProt Q9UM73); assay: ALK Kinase Assay (ELISA/TRF, PLC-γ substrate); type: biochemical; conditions: read-out: ALK Kinase Inhibition (IC50); note: 1 µM ATP (Km level)
Outline: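 Plates coated with GST–PLC-γ fusion substrate (10 μg/mL in TBS); reaction started with 30 ng/ml ALK, run 15 minutes at 37° C. Phosphotyrosine detected by Eu-N1 PT66 antibody (1 hour, 37° C) and time-resolved fluorescence after enhancement. IC50 from sigmoidal variable-slope fit of percent inhibition versus log concentration.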

T1 sequence (P08581 956-1390 limits assumed): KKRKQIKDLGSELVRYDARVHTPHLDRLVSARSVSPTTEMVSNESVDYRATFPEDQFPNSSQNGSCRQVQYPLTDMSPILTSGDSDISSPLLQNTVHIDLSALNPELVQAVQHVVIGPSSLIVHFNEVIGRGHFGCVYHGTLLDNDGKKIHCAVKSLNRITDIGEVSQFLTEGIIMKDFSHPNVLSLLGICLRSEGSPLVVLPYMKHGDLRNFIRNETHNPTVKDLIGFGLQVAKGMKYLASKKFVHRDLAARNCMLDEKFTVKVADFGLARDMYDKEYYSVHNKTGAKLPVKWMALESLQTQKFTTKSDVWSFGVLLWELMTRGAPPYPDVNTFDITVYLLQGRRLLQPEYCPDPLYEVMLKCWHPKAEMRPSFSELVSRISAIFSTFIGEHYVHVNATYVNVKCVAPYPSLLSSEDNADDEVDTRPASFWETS
baculovirus-expressed ALK, sequence (Q9UM73 19-1620): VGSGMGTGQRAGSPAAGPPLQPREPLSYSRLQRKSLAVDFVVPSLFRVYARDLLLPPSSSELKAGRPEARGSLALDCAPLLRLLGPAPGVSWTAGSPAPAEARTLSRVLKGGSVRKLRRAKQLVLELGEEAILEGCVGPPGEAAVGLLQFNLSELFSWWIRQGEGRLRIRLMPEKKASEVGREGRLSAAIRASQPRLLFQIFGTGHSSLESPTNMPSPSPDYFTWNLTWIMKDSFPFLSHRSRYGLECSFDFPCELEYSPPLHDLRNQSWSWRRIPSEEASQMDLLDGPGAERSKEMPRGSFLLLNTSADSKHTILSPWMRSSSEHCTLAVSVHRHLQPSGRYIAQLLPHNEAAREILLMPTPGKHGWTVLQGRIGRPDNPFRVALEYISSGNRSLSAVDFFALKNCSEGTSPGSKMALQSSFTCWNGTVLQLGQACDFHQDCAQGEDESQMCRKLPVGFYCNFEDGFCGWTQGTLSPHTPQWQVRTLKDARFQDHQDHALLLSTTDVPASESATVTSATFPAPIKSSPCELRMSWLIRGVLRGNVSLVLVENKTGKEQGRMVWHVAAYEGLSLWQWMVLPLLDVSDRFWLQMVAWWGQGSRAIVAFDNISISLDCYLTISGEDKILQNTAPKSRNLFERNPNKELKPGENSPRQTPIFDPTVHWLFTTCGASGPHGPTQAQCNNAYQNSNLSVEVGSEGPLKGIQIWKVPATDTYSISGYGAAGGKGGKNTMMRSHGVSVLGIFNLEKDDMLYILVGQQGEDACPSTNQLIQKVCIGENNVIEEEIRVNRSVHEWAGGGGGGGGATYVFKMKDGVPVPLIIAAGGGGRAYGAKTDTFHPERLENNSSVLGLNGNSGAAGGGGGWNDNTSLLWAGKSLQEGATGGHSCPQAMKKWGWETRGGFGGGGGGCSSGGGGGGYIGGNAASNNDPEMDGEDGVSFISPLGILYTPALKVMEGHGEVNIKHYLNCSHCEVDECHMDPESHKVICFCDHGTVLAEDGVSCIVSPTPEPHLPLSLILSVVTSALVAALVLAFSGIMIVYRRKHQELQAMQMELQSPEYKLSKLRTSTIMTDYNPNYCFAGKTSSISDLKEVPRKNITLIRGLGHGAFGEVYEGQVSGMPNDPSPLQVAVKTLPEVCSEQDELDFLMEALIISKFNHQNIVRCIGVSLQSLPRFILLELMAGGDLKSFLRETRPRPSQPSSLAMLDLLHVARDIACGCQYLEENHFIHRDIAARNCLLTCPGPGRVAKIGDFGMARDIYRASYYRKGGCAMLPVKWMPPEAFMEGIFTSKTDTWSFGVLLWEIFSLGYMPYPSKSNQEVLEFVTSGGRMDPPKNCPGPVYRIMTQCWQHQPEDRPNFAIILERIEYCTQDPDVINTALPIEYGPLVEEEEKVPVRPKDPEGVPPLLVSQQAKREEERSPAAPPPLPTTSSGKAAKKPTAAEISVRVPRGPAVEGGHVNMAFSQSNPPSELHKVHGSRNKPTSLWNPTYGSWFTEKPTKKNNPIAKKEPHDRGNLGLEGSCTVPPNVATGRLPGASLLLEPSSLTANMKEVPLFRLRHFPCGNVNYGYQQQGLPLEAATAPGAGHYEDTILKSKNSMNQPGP

Structure (SMILES)	IC50 [1] [µM]	IC50 [2] [µM]
COC(=O)C(C)(C)Nc1ncc(I)cc1[N+](=O)[O-] [Example 90, 2-(5-Iodo-3-nitro-pyridin-2-ylamino)-2-methyl-propionic acid methyl ester]	> 100	> 100
Fc1ccc(F)c(CN2CCNc3ncc(-c4ccnc(N5CCOCC5)c4Cl)cc32)c1Cl [Example 101, 1-(2-Chloro-3,6-difluorobenzyl)-7-(3-chloro-2-morpholin-4-yl-pyridin-4-yl)-1,2,3,4-tetrahydropyrido[2,3-b]pyrazine]	1 to 10	0.1 to 1
O=C(Cc1ccccc1)N1CCNc2ncc(I)cc21 [Example 110, 1-(7-Iodo-3,4-dihydro-2H-pyrido[2,3-b]pyrazin-1-yl)-2-phenylethanone]	10 to 100	> 100
O=C(c1ccc(-c2cnc3c(c2)N(C(=O)Cc2ccccc2)CCN3)cc1)N1CCC(N2CCCC2)CC1 [Example 111, 2-Phenyl-1-{7-[4-(4-(pyrrolidin-1-yl)piperidine-1-carbonyl)phenyl]-3,4-dihydro-2H-pyrido[2,3-b]pyrazin-1-yl}-ethanone]	10 to 100	> 100
O=C(c1ccc(-c2cnc3c(c2)N(C(=O)Cc2cc(F)ccc2F)CCN3)cc1)N1CCC(N2CCCC2)CC1 [Example 114, 2-(2,5-Difluorophenyl)-1-{7-[4-(4-(pyrrolidin-1-yl)piperidine-1-carbonyl)phenyl]-3,4-dihydro-2H-pyrido[2,3-b]pyrazin-1-yl}ethanone]	10 to 100	1 to 10
O=S(=O)(c1ccccc1)N1CCNc2ncc(I)cc21 [Example 123, 1-Benzenesulfonyl-7-iodo-1,2,3,4-tetrahydropyrido[2,3-b]pyrazine]	10 to 100	10 to 100
CN1CCN(c2ccc(-c3cnc4c(c3)N(S(=O)(=O)c3ccccc3)CCN4)cn2)CC1 [Example 125, 1-Benzenesulfonyl-7-[6-(4-methylpiperazin-1-yl)pyridin-3-yl]-1,2,3,4-tetrahydropyrido[2,3-b]pyrazine]	10 to 100	0.1 to 1
COc1ncc(-c2cnc3c(c2)N(Cc2cc(Cl)ccc2Cl)CCN3)cn1 [Example 129, 1-(2,5-Dichlorobenzyl)-7-(2-methoxypyrimidin-5-yl)-1,2,3,4-tetrahydropyrido[2,3-b]pyrazine]	10 to 100	0.1 to 1
Clc1cccc(Cl)c1CN1CCNc2ncc(-c3cccnc3)cc21 [Example 138, 1-(2,6-Dichlorobenzyl)-7-pyridin-3-yl-1,2,3,4-tetrahydropyrido[2,3-b]pyrazine, trifluoroacetic acid salt]	10 to 100	1 to 10
CN(C)CCCCCCNC(=O)c1ccc(-c2cnc3c(c2)N(Cc2c(Cl)cccc2Cl)C(=O)CN3)cc1 [Example 143, 4-[1-(2,6-Dichlorobenzyl)-2-oxo-1,2,3,4-tetrahydropyrido[2,3-b]pyrazin-7-yl]-N-(6-dimethylaminohexyl)benzamide, trifluoroacetic acid salt]	1 to 10	0.1 to 1
CC(c1cc(F)c(F)cc1F)N1C(=O)CNc2ncc(I)cc21 (centres unmarked) [Example 145, 7-Iodo-1-[1-(2,4,5-trifluorophenyl)ethyl]-3,4-dihydro-1H-pyrido[2,3-b]pyrazin-2-one]	> 100	> 100
CC(c1cc(F)c(F)cc1F)N1C(=O)CNc2ncc(-c3ccc(C(=O)N4CCN(C)CC4)cc3)cc21 (centres unmarked) [Example 146, 7-[4-(4-Methylpiperazine-1-carbonyl)phenyl]-1-[1-(2,4,5-trifluorophenyl)ethyl]-3,4-dihydro-1H-pyrido[2,3-b]pyrazin-2-one, trifluoroacetic acid salt]	10 to 100	> 100
CC(c1cc(F)c(F)cc1F)N1CCNc2ncc(I)cc21 (centres unmarked) [Example 147, 7-Iodo-1-[1-(2,4,5-trifluorophenyl)ethyl]-1,2,3,4-tetrahydropyrido[2,3-b]pyrazine]	> 100	10 to 100
CC(c1cc(F)c(F)cc1F)N1CCNc2ncc(-c3ccc(C(=O)N4CCC[C@H]4CN4CCCC4)cc3)cc21 (stereo partly drawn) [Example 148, S-{2-[(pyrrolidin-1-yl)methyl]pyrrolidin-1-yl}-(4-{1-[1-(2,4,5-trifluorophenyl)ethyl]-1,2,3,4-tetrahydropyrido[2,3-b]pyrazin-7-yl}phenyl)methanone, trifluoroacetic acid salt]	10 to 100	0.1 to 1
CC(c1cc(F)c(F)cc1F)N1CCNc2ncc(-c3ccc(C(=O)N4CCN(C)CC4)cc3)cc21 (centres unmarked) [Example 149, (4-Methylpiperazin-1-yl)-(4-{1-[1-(2,4,5-trifluorophenyl)ethyl]-1,2,3,4-tetrahydropyrido[2,3-b]pyrazin-7-yl}phenyl)methanone]	> 100	> 100
CC(c1cc(F)ccc1F)N1C(=O)CNc2ncc(I)cc21 (centres unmarked) [Example 150, 1-[1-(2,5-Difluorophenyl)ethyl]-7-iodo-3,4-dihydro-1H-pyrido[2,3-b]pyrazin-2-one]	> 100	> 100
CC(c1cc(F)ccc1F)N1C(=O)CNc2ncc(-c3ccc(C(=O)N4CCC[C@H]4CN4CCCC4)cc3)cc21 (some centres unmarked) [Example 151]	10 to 100	0.1 to 1
CC(c1cc(F)ccc1F)N1C(=O)CNc2ncc(-c3ccc(C(=O)N4CCN(C)CC4)cc3)cc21 (centres unmarked) [Example 152, 1-[1-(2,5-Difluorophenyl)ethyl]-7-[4-(4-methylpiperazine-1-carbonyl)phenyl]-3,4-dihydro-1H-pyrido[2,3-b]pyrazin-2-one, trifluoroacetic acid salt]	10 to 100	1 to 10
CC(c1cc(F)ccc1F)N1CCNc2ncc(I)cc21 (centres unmarked) [Example 153, 1-[1-(2,5-Difluorophenyl)ethyl]-7-iodo-1,2,3,4-tetrahydropyrido[2,3-b]pyrazine]	> 100	> 100
CC(C)(C)OC(=O)NCC#Cc1cnc2c(c1)N(Cc1c(Cl)cccc1Cl)CCN2 [Example 170, {3-[1-(2,6-Dichlorobenzyl)-1,2,3,4-tetrahydropyrido[2,3-b]pyrazin-7-yl]prop-2-ynyl}carbamic acid tert-butyl ester]	> 100	1 to 10
NCC#Cc1cnc2c(c1)N(Cc1c(Cl)cccc1Cl)CCN2 [Example 171, 3-[1-(2,6-Dichlorobenzyl)-1,2,3,4-tetrahydropyrido[2,3-b]pyrazin-7-yl]prop-2-ynylamine, trifluoroacetic acid salt]	> 100	10 to 100
CC(c1c(F)ccc(F)c1Cl)N1C(=O)CNc2ncc(I)cc21 (centres unmarked) [Example 175, 1-[1-(2-Chloro-3,6-difluorophenyl)ethyl]-7-iodo-3,4-dihydro-1H-pyrido[2,3-b]pyrazin-2-one]	> 100	> 100
Fc1cccc(CN2CCNc3ncc(I)cc32)c1C(F)(F)F [Example 179, 1-[3-Fluoro-2-(trifluoromethyl)benzyl]-7-iodo-1,2,3,4-tetrahydropyrido[2,3-b]pyrazine]	> 100	> 100
CN1CCN(c2ccc(-c3cnc4c(c3)N(Cc3cccc(F)c3C(F)(F)F)CCN4)cn2)CC1 [Example 181, 1-[3-Fluoro-2-(trifluoromethyl)benzyl]-7-[6-(4-methylpiperazin-1-yl)pyridin-3-yl]-1,2,3,4-tetrahydropyrido[2,3-b]pyrazine]	1 to 10	0.1 to 1
Fc1ccc(F)c(CN2CCNc3ncc(-c4ccnc(N5CCCC5)c4)cc32)c1Cl [Example 183, 1-(2-Chloro-3,6-difluorobenzyl)-7-(2-pyrrolidin-1-yl-pyridin-4-yl)-1,2,3,4-tetrahydropyrido[2,3-b]pyrazine]	1 to 10	0.1 to 1
CN1CCN(Cc2cc(Cl)ccc2Cl)c2cc(I)cnc21 [Example 187, 1-(2,5-Dichlorobenzyl)-7-iodo-4-methyl-1,2,3,4-tetrahydropyrido[2,3-b]pyrazine]	> 100	> 100
CN1CCN(c2ccc(-c3cnc4c(c3)N(Cc3cc(Cl)ccc3Cl)CCN4C)cn2)CC1 [Example 188, 1-(2,5-Dichlorobenzyl)-4-methyl-7-[6-(4-methylpiperazin-1-yl)pyridin-3-yl]-1,2,3,4-tetrahydropyrido[2,3-b]pyrazine]	> 100	1 to 10
O=C(O)c1ccc(-c2cnc3c(c2)N(Cc2cc(Cl)ccc2C(F)(F)F)CCN3)cc1 [Example 195, 4-{1-[5-Chloro-2-(trifluoromethyl)benzyl]-1,2,3,4-tetrahydropyrido[2,3-b]pyrazin-7-yl}benzoic acid]	1 to 10	1 to 10
